Measurements taken from patent publication US11311513B2, “Methods, agents, and compositions for the treatment of acute myeloid leukemia” (UNIVERSITY OF CINCINNATI, priority 2017, dated 2022).
“And” between values parts separate entries of the source, which are not always exact repeats. Identical values can stand only once. Like-named read-outs stand apart in the source and are kept apart here.

Experiments:
[1] = tested on: Tet1 deficient mouse BM progenitor cells transduced with MLL-AF9; assay: Viability of MLL-AF9-transduced Tet1 deficient BM progenitor cells; format: cell-based; conditions: 48 hrs; for cell viability: Tet1 deficient counterpart cells; for viability of cells with induced Tet1 deficiency: conditional Tet1 knockout, polyI:C induced, 500 nM
Experimental: (§1) FIG. 5. […] Gene expression levels are shown. […] ChIP-qPCR assay was carried out 48 hrs after drug treatment. Enrichment of STAT3, STAT5, or IgG at the TET1 promoter region and other regions are shown. […] BM progenitor cells of wild-type or Tet1^−/− mice were retrovirally transduced with MLL-AF9. […] Relative cell viabilities are shown. (m) Cre-Tet1f mouse BM progenitor cells were retrovirally transduced with MLL-AF9. […] Relative cell viability is shown. (n-o) THP-1 (n) and MONOMAC-6 (o) cells were infected with lentivirus of pLenti-puro vector-based Tet1 construct. […] Relative cell viability is shown. *, P<0.05; **, P<0.01, two-tailed t-test. Error bar indicates SD of triplicate experiments.
FIG. 13. […] (a-d) BM progenitor cells of wild-type or Tet1^−/− mice were retrovirally transduced with MLL-AF9. Infected cells were treated with 200 nM JAK/STAT inhibitors individually, including Pacritinib (a), KW-2449 (b), Stattic (c) or sc-355979 (d), for 48 hrs. Relative cell viabilities are shown. (e) Cre-Tet1^fl/fl mouse BM progenitor cells were retrovirally transduced with MLL-AF9. […] Cell viabilities (normalized to non-induced Cre-Tet1^fl/fl treated with DMSO control) are shown. ‘K, P<0.05; ‘K‘K, P<0.01, two-tailed t-test
siRNAs were transfected into MONOMAC-6 cells with Cell Line Nucleofector Kit V following program T-037, using the Amaxa Nucleofector Technology (Amaxa Biosystems, Berlin, Germany). Experiments were performed 48 h after transfection. Retrovirus infection of mouse BM progenitor cells were conducted as described previously with some modifications. Briefly, retrovirus vectors were co-transfected with pCL-Eco packaging vector (IMGENEX, San Diego, Calif.) into HEK293T cells using Effectene Transfection Reagent (Qiagen, Valencia, Calif.) to produce retrovirus. BM cells were harvested from a cohort of 4- to 6-week-old C57BL/6, Tet1^−/−, or Cre-Tet1^fl/fl donor mice after five days of 5-fluorouracil (5-FU) treatment, and primitive hematopoietic progenitor cells were enriched with Mouse Lineage Cell Depletion Kit (Miltenyi Biotec Inc., Auburn, Calif.). An aliquot of enriched hematopoietic progenitor cells was added to retroviral supernatant together with polybrene in cell culture plates, which were centrifuged at 2,000 g for 2 hours at 32° C. (i.e., spinoculation) and then the medium was replaced with fresh media and incubated for 20 hours at 37° C. Next day, the same procedure was repeated once. Infected cells were grown in RPMI 1640 medium containing 10 ng/mL murine recombinant IL-3, 10 ng/mL IL-6, 100 ng/mL murine recombinant SCF (R&D Systems, Minneapolis, Minn.), along with 1.0 mg/ml of G418. Experiments were performed 7 days after infection.
(§2) These experiments were conducted as described previously (Jiang, X., et al., Blockade of miR-150 Maturation by MLL-Fusion/MYC/LIN-28 Is Required for MLL-Associated Leukemia, Cancer Cell 22:524-35 (2012); Li, Z., et al., miR-196b directly targets both HOXA9/MEIS1 oncogenes and FAS tumour suppressor in MLL-rearranged leukaemia, Nat Commun 2:688 (2012)) with ApoLive-Glo Multiplex Assay Kit, or CellTiter 96 AQueous Non-Radioactive Cell Proliferation Assay Kit (Promega, Madison, Wis.).

[2] = tested on: BM cells of leukemic mice with MLL-AF9 fusion (MA9-AML) or FLT3-ITD/NPM1^mut; assay: MTS and apoptosis assays in BM cells of leukemic mice; format: cell-based; conditions: 50 nM; 3 days
Experimental: (§3) FIG. 14. […] BM cells of leukemic mice with MLL-AF9 fusion (MA9-AML) or FLT3-ITD/NPM1^mut, and c-Kit^+ HSPCs from a pool of 6 healthy donor mice were cultured in liquid medium. […] MTS (a), apoptosis assays (b) and qPCR (c) were conducted 3 days after cell seeding or drug treatments. Error bar indicates SD of triplicate experiments.
as §2

[3] = tested on: AE9a-AML; assay: AML-ETO9a (AE9a) AML secondary BMT mouse model; format: in vivo, mice; conditions: for median survival: 2.5 mg/kg i.p. once per day for 10 days, control 46 days
Experimental: (§4) FIG. 2. […] The secondary BMT recipient mice were transplanted with leukemic BM blast cells collected from primary MLL-AF9 AML mice. […] Kaplan-Meier curves are shown. The P values were determined by log-rank test. (b) Wright-Giemsa staining of mouse peripheral blood (PB) and BM, or hematoxylin and eosin (H&E) staining of mouse spleen and liver of the treated or control leukemic mice. (c,d) Tet1/2/3 gene expression levels (c) or Tet1 protein level (d) in BM blast cells of the treated or control leukemic mice. *, P<0.05, two-tailed t-test. Error bar indicates SD of triplicate experiments. […] The secondary BMT recipient mice were transplanted with leukemic BM blast cells collected from the primary AE9a-AML mice. […] Kaplan-Meier curves are shown. The P values were determined by log-rank test.
(§5) Secondary mouse BMT was carried out as described previously. […] For the “5+3” treatment, AraC (Cytarabine, Bedford Laboratories) and DNR (Daunorubicin, Sigma-Aldrich) were reconstituted with PBS, filtered, and stored in aliquots at −20° C. The “5+3” therapy regimen consists of five consecutive daily doses of 50 mg/kg AraC along with 3 mg/kg DNR daily during the first three days of treatment. Drugs were delivered by tail vein and intraperitoneal injection. Weights were taken daily during treatment and doses were recalculated to ensure the mice received a consistent dose of 50 mg/kg AraC and 3 mg/kg DNR every treatment.

[4] = Maximum tolerated dose and median lethal dose; format: in vivo
[5] = tested on: normal hematopoietic stem/progenitor cells (c-Kit+ BM cells); assay: MTS and apoptosis assays in normal HSPCs; format: cell-based, mice; conditions: 50 nM; 3 days
Experimental: as §3, §2

[6] = tested on: wild-type mouse BM progenitor cells transduced with MLL-AF9; assay: Viability of MLL-AF9-transduced wild-type BM progenitor cells; format: cell-based; conditions: 48 hrs
Experimental: as §1
siRNAs were transfected into MONOMAC-6 cells with Cell Line Nucleofector Kit V following program T-037, using the Amaxa Nucleofector Technology (Amaxa Biosystems, Berlin, Germany). Experiments were performed 48 h after transfection. Retrovirus infection of mouse BM progenitor cells were conducted as described previously with some modifications. Briefly, retrovirus vectors were co-transfected with pCL-Eco packaging vector (IMGENEX, San Diego, Calif.) into HEK293T cells using Effectene Transfection Reagent (Qiagen, Valencia, Calif.) to produce retrovirus. […]

[7] = tested on: MLL-AF9-induced AML; assay: MLL-AF9 AML secondary BMT mouse model; format: in vivo, mice; conditions: for mice cured / median survival: 2.5 mg/kg i.p. once per day for 10 days; for median survival: control 49 days
Experimental: as §4, §5

[8] = versus control, 2.5 mg/kg i.p. 10 days

| Structure (SMILES) | cell viability [1] | viability of cells with induced Tet1 deficiency [1] | viability of AML cells [2] | median survival [3] | toxicity on normal HSPCs (viability, apoptosis) [5] | cell viability [6] | mice cured [7] [%] | median survival [7] [days] | further results |
| --- | --- | --- | --- | --- | --- | --- | --- | --- | --- |
| COc1cc(C(c2cc3c(cc2O)OCO3)N2CCCC2)cc(OC)c1OC (centres unmarked) [NSC-370284, 6-(1-Pyrrolidinyl(3,4,5-trimethoxyphenyl)methyl)-1,3-benzodioxol-5-ol] | no such inhibition | no significant effect | dramatically suppressed | 122 days and 114 days | no obvious toxicity | remarkable repression of cell viability | 57 | > 200 | LD50 ([4]; C57BL/6, mouse, in vivo, ip, C57BL/6, I.P., read-out: LD50): ~123 mg/kg; MTD ([4]; C57BL/6, mouse, in vivo, ip, mice, I.P., read-out: maximum tolerated dose): 65 to 85.6 mg/kg; Number of Death ([4]; I.P. 65 mg/kg, 10 exposed): 0; Number of Death ([4]; I.P. 85.6 mg/kg, 10 exposed): 1; Number of Death ([4]; I.P. 113.5 mg/kg, 10 exposed): 3; Number of Death ([4]; I.P. 150 mg/kg, 10 exposed): 6; Number of Death ([4]; I.P. 200 mg/kg, 10 exposed): 10 |
| CC(C)(C)c1cc(C(c2cc3c(cc2O)OCO3)N2CCOCC2)cc(C(C)(C)C)c1O (centres unmarked) [UC-514321, 6-{[4-Hydroxy-3,5-bis(2-methyl-2-propanyl)phenyl](4-morpholinyl)methyl}-1,3-benzodioxol-5-ol] | no such inhibition | no significant effect | dramatically suppressed | 160 days | no obvious toxicity | remarkable repression of cell viability | 66.7 | > 200 | prolongation of median survival [3, 8]: over 3 folds; MTD ([4]; C57BL/6, mouse, in vivo, ip): 65 to 85.6 mg/kg; Number of Death ([4]; C57BL/6, mouse, in vivo, ip, 65 mg/kg): 0; Number of Death ([4]; C57BL/6, mouse, in vivo, ip, 85.6 mg/kg): 1; Number of Death ([4]; C57BL/6, mouse, in vivo, ip, 113.5 mg/kg): 2; Number of Death ([4]; C57BL/6, mouse, in vivo, ip, 150 mg/kg): 7; Number of Death ([4]; C57BL/6, mouse, in vivo, ip, 200 mg/kg): 10; LD50 ([4]; C57BL/6, mouse, in vivo, ip, LD50): ~123 mg/kg; prolongation of median survival [7, 8]: over 3 folds |
